Data taken from US10633394B2, “Heterocyclic derivatives and use thereof” (C & C RESEARCH LABORATORIES, priority 2014, dated 2020).

Experiments:
Type in all cases: cell-based
[1] = system: MDA-MB-468; test: Cell growth inhibition assay (CellTiter-Glo), breast cancer cell line MDA-MB-468; settings: Homo sapiens; MDA-MB-468 cells, 96 hours
Protocol: (§1) The inhibitory effects of the compounds of the present invention against the growth of cancer cells were evaluated as shown below. The cancer cell lines including stomach cancer cell line (NCI-N87) and breast cancer cell line (MDA-MB-468) were cultured under the protocol provided by each supplier. Each type of cells to be used in experiments was sub-cultured in a 96-well plate by counting the exact number of cells using Tali™ Image-based Cytometer (Life Technologies). In a 96-well plate, NCI-N87 was employed with 5,000 cells/well; and MDA-MB-468 was employed with 10,000 cells/well. The cells were treated with the compounds listed in Examples which were diluted in various concentrations. Upon completion of the compounds treatment, NCI-N87 cells were cultured at 37° C. under 5% CO2 for 96 hours, and MDA-MB-468 cells were cultured at 37° C. in air for 96 hours. Subsequently, the cells were observed under microscope and drug precipitation and particular findings were investigated and recorded. And then, the 96-well plate was placed at room temperature for 30 minutes, added with 20 μL/well of CellTiter-Glo solution (Cat No. G7573, Promega) and shaken for 10 minutes, followed by being subjected to the measurement using PHERAstar™ microplate reader (BMG LABTECH) according to the supplier's general luminometer protocol. Wells where only culture liquid added without cell plating were used as a negative control, whereas wells where culture liquid containing 0.1% DMSO instead of the compounds listed in Examples were used as a positive control.

[2] = system: NCI-N87; test: Cell growth inhibition assay (CellTiter-Glo), stomach cancer cell line NCI-N87; settings: Homo sapiens; NCI-N87 cells, 96 hours
Protocol: as §1

[3] = target: T1, STAT3 (Homo sapiens, UniProt P40763); test: STAT3 reporter gene (luciferase) assay in LNCaP stable cell line stimulated with IL-6; settings: LNCaP stable cell line (pSTAT3-TA-luc), IL-6 10 ng/mL, 24 hours
T1 construct: plasmid pSTAT3-TA-luc), which contains a stably operating STAT3 promoter; endogenous in cells
Protocol: 1-1) Experiment on the Inhibition of STAT3 Activity
A human prostate cancer cell line (LNCaP stable cell line; plasmid pSTAT3-TA-luc), which contains a stably operating STAT3 promoter, was cultured in RPMI1640 medium (Cat No. 11875, Life Technologies) containing 10% fetal bovine serum (FBS) (Cat No. SH30396, Thermo Scientific) and 150 μg/mL G-418 solution (Cat No. 04 727 894 001, Roche). The reporter gene assay using LNCaP stable cell line was performed in RPMI1640 medium containing 3% DCC-FBS without G-418 solution. LNCaP stable cells were plated in two (2) white 96-well plates with 30,000 cells/50 μL in each well. The cells were cultured at 37° C., under 5% CO2 for 24 hours, and then treated with the compounds listed in Examples which were diluted in various concentrations. Subsequently, IL-6 was added to each well with a final concentration of 10 ng/mL. Upon completion of the treatment with the compounds and IL-6, the cells were cultured at 37° C., under 5% CO2 for 24 hours. The plates were observed under microscope and drug precipitation and particular findings were investigated and recorded.
The luciferase assay and the cell viability assay were performed respectively with one of the two plates. For the luciferase assay, the liquid media in the 96-well plate was removed, and then, 20 μL of passive cell lysis buffer was added to each well. After shaking the plate for 30 minutes, luciferase activities of each well were measured in a PHERAstar™ microplate reader (BMG LABTECH) using a luciferase assay system (Cat No. E1501, Promega). For the cell viability assay, the 96-well plate was placed at room temperature for 30 minutes, added with 20 μL/well of CellTiter-Glo solution (Cat No. G7573, Promega), and shaken for 10 minutes in order to measure cytotoxicity caused by the compounds listed in Examples with a PHERAstar™ microplate reader (BMG LABTECH). Wells without 0.1% DMSO and stimulation were used as a negative control and wells with 0.1% DMSO and stimulation were used as a positive control.
The results of evaluation on the inhibitory effect of the compounds listed in the Examples on the dimerization of STAT3 and STAT1 obtained via the STAT3 and STAT1 reporter gene assays are shown in Table 6 below.

T1 sequence (P40763 whole entry): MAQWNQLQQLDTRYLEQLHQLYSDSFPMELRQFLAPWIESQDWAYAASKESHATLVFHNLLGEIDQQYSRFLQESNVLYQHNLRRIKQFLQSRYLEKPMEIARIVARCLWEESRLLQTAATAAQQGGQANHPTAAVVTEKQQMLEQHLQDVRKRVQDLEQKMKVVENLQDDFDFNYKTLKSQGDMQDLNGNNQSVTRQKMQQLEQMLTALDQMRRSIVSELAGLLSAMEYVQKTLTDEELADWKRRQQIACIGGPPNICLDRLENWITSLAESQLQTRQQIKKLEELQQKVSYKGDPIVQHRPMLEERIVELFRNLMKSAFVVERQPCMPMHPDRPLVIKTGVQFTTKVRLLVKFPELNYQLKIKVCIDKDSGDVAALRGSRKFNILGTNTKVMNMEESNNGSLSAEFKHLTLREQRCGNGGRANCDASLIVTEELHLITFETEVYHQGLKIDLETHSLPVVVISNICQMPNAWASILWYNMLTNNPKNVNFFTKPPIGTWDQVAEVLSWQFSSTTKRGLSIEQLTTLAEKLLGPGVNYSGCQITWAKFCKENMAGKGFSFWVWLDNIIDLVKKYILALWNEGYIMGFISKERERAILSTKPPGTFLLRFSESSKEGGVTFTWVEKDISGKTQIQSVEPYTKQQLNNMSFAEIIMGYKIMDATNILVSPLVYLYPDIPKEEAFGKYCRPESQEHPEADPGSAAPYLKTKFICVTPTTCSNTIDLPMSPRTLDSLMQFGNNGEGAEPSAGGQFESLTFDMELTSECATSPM

IC50 [1] [µM] | IC50 [2] [µM] | IC50 [3] [µM] | SMILES
0.0049 | 0.01 | 0.011 | CS(=O)(=O)C1CCOc2cc3sc(C(=O)Nc4cc(Cl)nc(Oc5cccc(Cl)c5)c4)cc3cc21 (stereo not drawn) [Example 25, N-(2-chloro-6-(3-chlorophenoxy)pyridin-4-yl)-4-(methylsulfonyl)-3,4-dihydro-2H-thieno[3,2-g]chromene-7-carboxamide]
0.0028 | 0.0018 | 0.003 | CS(=O)(=O)C1COCc2cc3sc(C(=O)Nc4cc(Cl)nc(Oc5ccc(Cl)cc5)c4)cc3cc21 (stereo not drawn) [Example 12, N-(2-chloro-6-(4-chlorophenoxy)pyridin-4-yl)-5-(methylsulfonyl)-5,8-dihydro-6H-thieno[3,2-g]isochromene-2-carboxamide]
0.0025 | 0.0061 | 0.0084 | CS(=O)(=O)C1CCOc2cc3sc(C(=O)Nc4cc(Cl)nc(Oc5ccc(Cl)c(F)c5)c4)cc3cc21 (stereo not drawn) [Example 19, N-(2-chloro-6-(4-chloro-3-fluorophenoxy)pyridin-4-yl)-4-(methylsulfonyl)-3,4-dihydro-2H-thieno[3,2-g]chromene-7-carboxamide]
0.0023 | 0.0092 | 0.0064 | CS(=O)(=O)C1CCOc2cc3sc(C(=O)Nc4cc(Cl)nc(Oc5ccc(F)c(F)c5)c4)cc3cc21 (stereo not drawn) [Example 34, N-(2-chloro-6-(3,4-difluorophenoxy)pyridin-4-yl)-4-(methylsulfonyl)-3,4-dihydro-2H-thieno[3,2-g]chromene-7-carboxamide]
0.075 | 0.32 | 0.18 | N#CC1CCOc2cc3sc(C(=O)Nc4cc(Cl)nc(Oc5ccc(Cl)cc5)c4)cc3cc21 (stereo not drawn) [Example 54, N-(2-chloro-6-(4-chlorophenoxy)pyridin-4-yl)-4-cyano-3,4-dihydro-2H-thieno[3,2-g]chromene-7-carboxamide]
0.0043 | 0.02 | 0.015 | CS(=O)(=O)C1CCOc2cc3sc(C(=O)Nc4cc(Cl)nc(Oc5cc(Cl)cc(Cl)c5)c4)cc3cc21 (stereo not drawn) [Example 18, N-(2-chloro-6-(3,5-dichlorophenoxy)pyridin-4-yl)-4-(methylsulfonyl)-3,4-dihydro-2H-thieno[3,2-g]chromene-7-carboxamide]
0.086 | 1.8 | 1.5 | CS(=O)(=O)[C@@H]1CCOc2cc3sc(C(=O)Nc4cc(Cl)nc(Oc5ccc(Cl)cc5)c4)cc3cc21 [Example 44, (R)—N-(2-chloro-6-(4-chlorophenoxy)pyridin-4-yl)-4-(methylsulfonyl)-3,4-dihydro-2H-thieno[3,2-g]chromene-7-carboxamide]
0.0023 | 0.011 | 0.0039 | CS(=O)(=O)C1CCOc2cc3sc(C(=O)Nc4cc(Cl)nc(Oc5ccc(C(F)(F)F)cc5)c4)cc3cc21 (stereo not drawn) [Example 17, N-(2-chloro-6-(4-(trifluoromethyl)phenoxy)pyridin-4-yl)-4-(methylsulfonyl)-3,4-dihydro-2H-thieno[3,2-g]chromene-7-carboxamide]
0.0039 | 0.021 | 0.0051 | CS(=O)(=O)C1CCOc2cc3sc(C(=O)Nc4cc(Cl)nc(Oc5cccc(C(F)(F)F)c5)c4)cc3cc21 (stereo not drawn) [Example 16, N-(2-chloro-6-(3-(trifluoromethyl)phenoxy)pyridin-4-yl)-4-(methylsulfonyl)-3,4-dihydro-2H-thieno[3,2-g]chromene-7-carboxamide]
0.0093 | 0.024 | 0.0098 | Cc1cccc(Oc2cc(NC(=O)c3cc4cc5c(cc4s3)OCCC5S(C)(=O)=O)cc(Cl)n2)c1 (stereo not drawn) [Example 33, N-(2-chloro-6-(m-tolyloxy)pyridin-4-yl)-4-(methylsulfonyl)-3,4-dihydro-2H-thieno[3,2-g]chromene-7-carboxamide]
0.002 | 0.0056 | 0.0051 | CS(=O)(=O)C1CCOc2cc3sc(C(=O)Nc4cc(Cl)nc(Oc5ccc(OC(F)(F)F)cc5)c4)cc3cc21 (stereo not drawn) [Example 28, N-(2-chloro-6-(4-(trifluoromethoxy)phenoxy)pyridin-4-yl)-4-(methylsulfonyl)-3,4-dihydro-2H-thieno[3,2-g]chromene-7-carboxamide]
0.0051 | 0.018 | 0.011 | Cc1cc(Cl)ccc1Oc1cc(NC(=O)c2cc3cc4c(cc3s2)OCCC4S(C)(=O)=O)cc(Cl)n1 (stereo not drawn) [Example 21, N-(2-chloro-6-(4-chloro-2-methylphenoxy)pyridin-4-yl)-4-(methylsulfonyl)-3,4-dihydro-2H-thieno[3,2-g]chromene-7-carboxamide]
0.0089 | 0.035 | 0.018 | Cc1ccc(Oc2cc(NC(=O)c3cc4cc5c(cc4s3)OCCC5S(C)(=O)=O)cc(Cl)n2)cc1 (stereo not drawn) [Example 15, N-(2-chloro-6-(p-tolyloxy)pyridin-4-yl)-4-(methylsulfonyl)-3,4-dihydro-2H-thieno[3,2-g]chromene-7-carboxamide]
0.0029 | 0.015 | 0.018 | CS(=O)(=O)[C@H]1CCOc2cc3sc(C(=O)Nc4cc(Cl)nc(Oc5ccc(Cl)cc5)c4)cc3cc21 [Example 43, (S)—N-(2-chloro-6-(4-chlorophenoxy)pyridin-4-yl)-4-(methylsulfonyl)-3,4-dihydro-2H-thieno[3,2-g]chromene-7-carboxamide]
0.0085 | 0.025 | 0.02 | COc1cc(Cl)cc(Oc2cc(NC(=O)c3cc4cc5c(cc4s3)OCCC5S(C)(=O)=O)cc(Cl)n2)c1 (stereo not drawn) [Example 30, N-(2-chloro-6-(3-chloro-5-methoxyphenoxy)pyridin-4-yl)-4-(methylsulfonyl)-3,4-dihydro-2H-thieno[3,2-g]chromene-7-carboxamide]
0.0022 | 0.009 | 0.008 | CS(=O)(=O)C1CCOc2cc3sc(C(=O)Nc4cc(Cl)nc(Oc5cc(F)cc(Cl)c5)c4)cc3cc21 (stereo not drawn) [Example 31, N-(2-chloro-6-(3-chloro-5-fluorophenoxy)pyridin-4-yl)-4-(methylsulfonyl)-3,4-dihydro-2H-thieno[3,2-g]chromene-7-carboxamide]
0.0029 | 0.0046 | 0.0059 | CS(=O)(=O)C1CCOc2cc3sc(C(=O)Nc4cc(Cl)nc(Oc5cccc(OC(F)(F)F)c5)c4)cc3cc21 (stereo not drawn) [Example 29, N-(2-chloro-6-(3-(trifluoromethoxy)phenoxy)pyridin-4-yl)-4-(methylsulfonyl)-3,4-dihydro-2H-thieno[3,2-g]chromene-7-carboxamide]
0.0017 | 0.0064 | 0.0045 | C[C@]1(S(C)(=O)=O)CCOc2cc3sc(C(=O)Nc4cc(Cl)nc(Oc5ccc(Cl)cc5)c4)cc3cc21 [Example 47, (S)—N-(2-chloro-6-(4-chlorophenoxy)pyridin-4-yl)-4-methyl-4-(methylsulfonyl)-3,4-dihydro-2H-thieno[3,2-g]chromene-7-carboxamide]
0.0066 | 0.025 | 0.0081 | CS(=O)(=O)C1(F)CCOc2cc3sc(C(=O)Nc4cc(Cl)nc(Oc5ccc(Cl)cc5)c4)cc3cc21 (stereo not drawn) [Example 13, N-(2-chloro-6-(4-chlorophenoxy)pyridin-4-yl)-4-fluoro-4-(methylsulfonyl)-3,4-dihydro-2H-thieno[3,2-g]chromene-7-carboxamide]
